Reference: patent US11111500B2, “Mutated protoporphyrinogen IX oxidase (PPX) genes” (CIBUS US LLC, priority 2010, dated 2021)
Like-named read-outs stand apart in the source and are kept apart here.

Legend:
[1] = tested on: potato protoplasts (protoplast derived microcalli); test: Flumioxazin kill curve with cell suspension and shoot tip-derived protoplasts; type: cell-based; conditions: for # Of calli in 3 beads, # / # Of calli in 3 beads, %: Non treated protoplast + PEG; for # Of calli in 3 beads, # / # Of calli in 3 beads, % / # of calli in 3 beads, # / # of calli in 3 beads, %: one month; for # Of calli in 3 beads, % / # of calli in 3 beads, %: % of average control; for # of calli in 3 beads, # / # of calli in 3 beads, %: Stop-GFP + Correcting GRON
Method: Herbicide selection experiments were performed to determine the concentration of herbicide necessary to kill protoplast derived microcalli in a defined treatment period. […] The herbicide was suspended in DMSO, with the final concentration of DMSO in the herbicide treatments being 1%. Development of cells was evaluated under the microscope once a week. […] A flumioxazin concentration of 0.032 mM is sufficient to prevent microcallus development from potato protoplasts.
About 200 shoot tips of 2-8 week-old in vitro shoots that have been cultured under a regular day/night regime, or, preferably were kept for two days before protoplast isolation in the dark, shoots may be cut into small pieces with a scalpel in a petri dish with sterile water. After all tips have been cut, the water is replaced with protoplast culture medium, preferably BN (B5 Salts and Vitamins (Phytotechnology Laboratories), glucose 20 g/L, mannitol 70 g/L, alpha naphthalene acetic acid 5 mg/L, additional CaCl2×2H2O 600 mg/L, casein hydrolysate 250 mg/L, cystcine-HCL 10 mg/L, polyvinylpyrrolidone (MW 10,000) 5 g/L. After approximately 1-2 h, the protoplast culture medium is replaced with enzyme solution, for example consisting of medium BN, in which 0.5% (w/v) Cellulase YC and 0.75% (w/v) Maccrozyme R10 (both from Karlan Research Products, Cottonwood, Ariz.), 1 g/L bovine serum albumin, and 1 g/L 2-morpholinoethanesulfonic acid are dissolved. The ratio of the number of shoot tips over the volume of enzyme solution can be between 10 and 16, preferably 13. The dish with shoot tip pieces in enzyme solution is incubated for at 25° C.-30° C., preferably 28° C., in darkness on a shaker set to about 50 rpm. After overnight incubation the protoplast suspension is purified using an iodixanol density gradient (adapted from Optiprep Application Sheet C18; Purification of Intact Plant Protoplasts; Axis-Shield USA, 10 Commerce Way, Norton, Mass. 02776). After the density gradient centrifugation, the band with purified protoplasts is removed together with about 5 mL W5 medium (Frigerio et al., 1998). The protoplast density and yield are determined with a hemocytometer. The protoplasts density is adjusted to 1×10^6/mL in BN medium containing 2 mg/L 2,6-dichlorobenzonitrile (cellulose synthase inhibitor), and the protoplasts are cultured in darkness at 30° C. for about 16 h.
1. Fast growing cell suspensions are used, preferably three days after their last subculture. 1.5 mL settled cell volume is transferred to about 15 ml BN medium, which after 2 h is replaced with enzyme solution. 2. The protoplast purification is followed immediately by the GRON/PEG treatment.
The protoplast suspension is mixed with an equal volume of W5 medium, transferred to a 50 mL centrifuge tube, and centrifuged for 10 min at the lowest setting of a clinical centrifuge (about 50×g). The supernatant is removed and replaced with TM medium (Klaus, S. Markerfreie transplastome Tabakpflanzen (Marker-free transplastomic tobacco plants). PhD Dissertation, 2002, Ludwig-Maximilians-Universitát Múnchen, 109 pp), adjusting the protoplast density to 5×10^6/mL. Aliquots of 100 μL containing 5×10^5 protoplasts each are distributed into 12 mL round bottom centrifuge tubes. GRONs (such as those shown in Table 14) targeted at one or more mutations in one or both of the mitochondrial and plastidal PPX genes are then introduced into the protoplasts using a PEG treatment. To introduce the GRONs into the protoplasts, 12.5 μg GRON dissolved in 25 μL purified water and 125 μL of a polyethylene glycol solution (5 g PEG MW 1500, 638 mg mannitol, 207 mg CaNO3×4H2O and 8.75 mL purified water; pH adjusted to about 9.0) is added. After a 10-30 min incubation on ice, the protoplast-PEG suspension is washed with W5 medium and resuspended in medium BN. The suspension is kept overnight in darkness at room temperature.
One day after the GRON introduction, protoplasts are embedded in calcium alginate. […]

[2] = Solubility of herbicide in liquid culture selection media; type: physicochemical
Method: Liquid culture selection conditions were developed for both sulfentrazone and flumioxazin. Cultures of 1 mL volume were tested with sulfentrazone and flumioxazin concentrations ranging from 0 to 10 mM. The 0 mM samples had 25 μL DMSO (2.5%) to mimic the concentration of DMSO in the samples containing 10 mM herbicide. Each tube was inoculated with 10 μL of an overnight culture of HemG cells complemented with the wildtype PPX plasmid to ensure uniformity. Spectrophotometric readings (OD600) were taken for each sample (1:4 dilution) and a sample of each plated on LB-Chlor-IPTG plates to determine whether the OD600 correlated with the number of viable colonies. A 10% dilution of the overnight culture was plated for the sulfentrazone-treated cells and a 1% dilution for the cells treated with flumioxazin was plated (see results in Tables 8a-f and 9a-d).
Both sulfentrazone and flumioxazin precipitate out in the liquid media, causing it to appear opaque even before inoculating bacteria.

[3] = tested on: leaf disc explants of in vitro grown potato plants; test: Leaf disk kill curve (callus formation in leaf disc explants); type: cell-based
Method: Aimed at establish the concentration of sulfentrazone that will inhibit callus formation in leaf disc explants, leaf discs were punched with a sterile hole punch from 5 weeks old in vitro grown potato plants. The leaf discs were cultured in petri dishes containing solid Haberlach culture medium containing various concentrations of Sulfentrazone in a final concentration of 1% DMSO. Six leaf discs cultured at each herbicide concentration. Plates were sealed with micropore tape and incubated at room temperature (approximately 23° C.). In an initial experiment, 7.8 μM sulfentrazone, the lowest concentration tested in that experiment, was sufficient to stop callus formations and bleach all leaf discs within 20 days. […] Similar leaf disc kill curve experiments were performed using saflufenacil where 0.5 μM of this herbicide was sufficient to inhibit callus formation in almost all leaf discs after 20 days.

Structure (SMILES): C#CCN1C(=O)COc2cc(F)c(N3C(=O)C4=C(CCCC4)C3=O)cc21 [flumioxazin]
- concentration sufficient to prevent microcallus development from potato protoplasts [1]: 0.032 mM
- # Of calli in 3 beads, # ([1]; flumioxazin 0.0156 μM): 40
- # Of calli in 3 beads, % ([1]; flumioxazin 0.0156 μM): 25%
- # Of calli in 3 beads, # ([1]; flumioxazin 0.0312 μM): 8
- # Of calli in 3 beads, % ([1]; flumioxazin 0.0312 μM): 5%
- # Of calli in 3 beads, # ([1]; flumioxazin 0.0468 μM): 0.0
- # Of calli in 3 beads, % ([1]; flumioxazin 0.0468 μM): 0.0%
- # Of calli in 3 beads, # ([1]; flumioxazin 0.0624 μM): 0
- # Of calli in 3 beads, % ([1]; flumioxazin 0.0624 μM): 0%
- # of calli in 3 beads, # ([1]; flumioxazin 0.0156 μM): 83
- # of calli in 3 beads, % ([1]; flumioxazin 0.0156 μM): 39%
- # of calli in 3 beads, # ([1]; flumioxazin 0.0312 μM): 11
- # of calli in 3 beads, % ([1]; flumioxazin 0.0312 μM): 4%
- # of calli in 3 beads, # ([1]; flumioxazin 0.0468 μM): 0.0
- # of calli in 3 beads, % ([1]; flumioxazin 0.0468 μM): 0.0%
- # of calli in 3 beads, # ([1]; flumioxazin 0.0624 μM): 0
- # of calli in 3 beads, % ([1]; flumioxazin 0.0624 μM): 0%
- microcalli development after one month ([1]; any concentration tested, 1% DMSO): no microcalli developed at any concentration tested
- concentration sufficient to kill all cells within a week ([1]; initial kill curve): 125 µM
- solubility in liquid media ([2]; liquid culture selection media, 0 to 10 mM, DMSO 2.5%): deficient solubility

Structure (SMILES): Cc1nn(-c2cc(NS(C)(=O)=O)c(Cl)cc2Cl)c(=O)n1C(F)F [sulfentrazone]
- concentration sufficient to stop callus formations and bleach all leaf discs within 20 days ([3]; initial experiment, lowest concentration tested, 1% DMSO): 7.8 µM
- time after which callus initiated on the leaf veins of some leaf discs ([3]; leaf discs grown on 2.0 μM): 13 days
- concentration sufficient to inhibit callus formation in almost all leaf discs after 20 days ([3]; solid Haberlach culture medium, 1% DMSO): 3.0 µM
- solubility in liquid media [2]: eventually goes into solution
